Measured values as given in the supplement of paper PMC10307832.

Each cell line was assayed with COC1=C(C=C(C=C1)C2=CC3=NC=CN3C(=N2)NC4=C(C=CC=N4)C(=O)N)OC [BAY61-3606] + N=C(N)NC(=N)NCCc1ccccc1 [Phenformin] (partner 250 µM) (assay: relative viability (nuclei count vs DMSO), 5 days (fraction); higher = more cells survive). Details: first compound 2 µM.
Outline: (§1)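 One day after seeding in 1536-well plates, lung cancer cell lines were dosed by pin tool. Dosing was either single-drug or a fixed anchor-drug dose plus five library-drug doses (not always all listed) in √10 steps. After 5 days, nuclei were stained in one fix-and-stain step and counted on 4× images, and relative viability is the nuclei count of treated wells over that of vehicle wells, given as the median of duplicate plates.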
A549 gave a relative viability of 0.166. NCI-H522 was tested, and the relative viability was 0.557. Cell Line LXF-289 has a relative viability of 0.491. In the case of BEN, the relative viability is reported as 0.255. With NCI-H1563 the relative viability was 0.61.

These cell lines were tested with COc1cccc2c1C(=O)c1c(O)c3c(c(O)c1C2=O)C[C@@](O)(C(=O)CO)C[C@@H]3O[C@H]1C[C@H](N)[C@H](O)[C@H](C)O1 [Doxorubicin] + N=C(N)NC(=N)NCCc1ccccc1 [Phenformin] (partner 250 µM) in the same assay as above. Details: first compound 0.001 µM.
Outline: as §1
NCI-H2342 showed a relative viability of 0.638. With NCI-H1623 the relative viability was 0.533. Work on RERF-LC-KJ yielded a relative viability of 0.397. Cell Line NCI-H1651 has a relative viability of 0.319. NCI-H1734 showed a relative viability of 0.385. NCI-H2009 gave a relative viability of 0.483. With NCI-H596 the relative viability was 0.696. SK-LU-1 gave a relative viability of 0.367. In the case of SW 1573, the relative viability is reported as 0.337. For LCLC-97TM1, the relative viability was 0.449. NCI-H661 was tested, and the relative viability was 0.27. NCI-H2228 was tested, and the relative viability was 0.284. Cell Line EMC-BAC-2 has a relative viability of 0.621. For HCC-44, the relative viability was 0.207. In the case of NCI-H727, the relative viability is reported as 0.499. LK-2 gave a relative viability of 0.31. Cell Line NCI-H2126 has a relative viability of 0.556. Cell Line H3255 has a relative viability of 0.371. COR-L23 was tested, and the relative viability was 0.422. COR-L 105 gave a relative viability of 0.57. With LC-2-ad the relative viability was 0.498. Cell Line LU99A has a relative viability of 0.698. Work on ChaGo-K-1 yielded a relative viability of 0.438. Work on NCI-H358 yielded a relative viability of 0.299. Work on NCI-H322M yielded a relative viability of 0.815. HCC-78 showed a relative viability of 0.778. NCI-H522 was tested, and the relative viability was 0.595. In the case of LXF-289, the relative viability is reported as 0.432. With BEN the relative viability was 0.251. NCI-H1563 showed a relative viability of 0.618.

Same assay, conditions: first compound 0.003162 µM
Cell Line NCI-H2342 has a relative viability of 0.54. NCI-H1623 showed a relative viability of 0.561. Work on RERF-LC-KJ yielded a relative viability of 0.443. NCI-H1651 was tested, and the relative viability was 0.336. For NCI-H1734, the relative viability was 0.413. NCI-H2009 gave a relative viability of 0.482. NCI-H596 gave a relative viability of 0.882. In the case of SK-LU-1, the relative viability is reported as 0.558. SW 1573 showed a relative viability of 0.355. For LCLC-97TM1, the relative viability was 0.481. Work on NCI-H661 yielded a relative viability of 0.284. With NCI-H2228 the relative viability was 0.312. In the case of EMC-BAC-2, the relative viability is reported as 0.462. NCI-H2087 showed a relative viability of 0.45. For HCC-44, the relative viability was 0.244. With NCI-H727 the relative viability was 0.472. Work on LK-2 yielded a relative viability of 0.328. In the case of NCI-H2126, the relative viability is reported as 0.531. Cell Line NCI-H1793 has a relative viability of 0.291. Work on H3255 yielded a relative viability of 0.363. COR-L23 gave a relative viability of 0.501. In the case of COR-L 105, the relative viability is reported as 0.533. LC-2-ad gave a relative viability of 0.516. Work on LU99A yielded a relative viability of 1.06. Work on ChaGo-K-1 yielded a relative viability of 0.522. Work on NCI-H358 yielded a relative viability of 0.307. Cell Line NCI-H322M has a relative viability of 0.731. HCC-78 gave a relative viability of 0.768. A549 gave a relative viability of 0.142. For NCI-H522, the relative viability was 0.622. For LXF-289, the relative viability was 0.545. Cell Line BEN has a relative viability of 0.231. NCI-H1563 was tested, and the relative viability was 0.573.

Same assay, conditions: first compound 0.01 µM
Cell Line NCI-H2342 has a relative viability of 0.527. With NCI-H1623 the relative viability was 0.575. RERF-LC-KJ gave a relative viability of 0.372. With NCI-H1651 the relative viability was 0.259. NCI-H1734 was tested, and the relative viability was 0.356. NCI-H2009 was tested, and the relative viability was 0.481. Cell Line NCI-H596 has a relative viability of 0.742. Work on SK-LU-1 yielded a relative viability of 0.449. With SW 1573 the relative viability was 0.216. LCLC-97TM1 was tested, and the relative viability was 0.402. NCI-H661 was tested, and the relative viability was 0.265. NCI-H2228 showed a relative viability of 0.242. EMC-BAC-2 gave a relative viability of 0.416. Cell Line NCI-H2087 has a relative viability of 0.405. For HCC-44, the relative viability was 0.341. NCI-H727 was tested, and the relative viability was 0.696. LK-2 gave a relative viability of 0.388. NCI-H2126 gave a relative viability of 0.475. For NCI-H1793, the relative viability was 0.355. With H3255 the relative viability was 0.333. With COR-L23 the relative viability was 0.43. Work on COR-L 105 yielded a relative viability of 0.434. Cell Line LC-2-ad has a relative viability of 0.562. Work on LU99A yielded a relative viability of 0.767. For ChaGo-K-1, the relative viability was 0.503. NCI-H358 gave a relative viability of 0.176. Work on NCI-H322M yielded a relative viability of 0.755. HCC-78 gave a relative viability of 0.659. A549 showed a relative viability of 0.149. With NCI-H522 the relative viability was 0.585. In the case of LXF-289, the relative viability is reported as 0.498. BEN showed a relative viability of 0.278. Cell Line NCI-H1563 has a relative viability of 0.546.

Same assay, conditions: first compound 0.03162 µM
Work on NCI-H2342 yielded a relative viability of 0.552. NCI-H1623 gave a relative viability of 0.528. Work on RERF-LC-KJ yielded a relative viability of 0.325. NCI-H1651 was tested, and the relative viability was 0.154. For NCI-H1734, the relative viability was 0.262. NCI-H2009 was tested, and the relative viability was 0.414. In the case of NCI-H596, the relative viability is reported as 0.558. SK-LU-1 gave a relative viability of 0.226. Cell Line SW 1573 has a relative viability of 0.111. LCLC-97TM1 was tested, and the relative viability was 0.467. In the case of NCI-H661, the relative viability is reported as 0.244. In the case of NCI-H2228, the relative viability is reported as 0.107. Work on EMC-BAC-2 yielded a relative viability of 0.265. NCI-H2087 showed a relative viability of 0.273. HCC-44 gave a relative viability of 0.151. NCI-H727 showed a relative viability of 0.539. For LK-2, the relative viability was 0.33. Cell Line NCI-H2126 has a relative viability of 0.299. NCI-H1793 gave a relative viability of 0.334. Work on H3255 yielded a relative viability of 0.374. In the case of COR-L23, the relative viability is reported as 0.224. For COR-L 105, the relative viability was 0.295. LC-2-ad showed a relative viability of 0.289. LU99A showed a relative viability of 0.721. For ChaGo-K-1, the relative viability was 0.363. Work on NCI-H358 yielded a relative viability of 0.0992. NCI-H322M showed a relative viability of 0.429. HCC-78 gave a relative viability of 0.706. In the case of A549, the relative viability is reported as 0.137. Cell Line NCI-H522 has a relative viability of 0.543. LXF-289 gave a relative viability of 0.504. BEN gave a relative viability of 0.256. NCI-H1563 showed a relative viability of 0.524.

Same assay, conditions: first compound 0.1 µM
NCI-H2342 was tested, and the relative viability was 0.553. NCI-H1623 gave a relative viability of 0.502. For RERF-LC-KJ, the relative viability was 0.271. NCI-H1651 gave a relative viability of 0.153. NCI-H1734 was tested, and the relative viability was 0.261. Work on NCI-H2009 yielded a relative viability of 0.275. In the case of NCI-H596, the relative viability is reported as 0.755. Work on SK-LU-1 yielded a relative viability of 0.173. SW 1573 was tested, and the relative viability was 0.0738. For LCLC-97TM1, the relative viability was 0.392. NCI-H661 was tested, and the relative viability was 0.238. For NCI-H2228, the relative viability was 0.118. With EMC-BAC-2 the relative viability was 0.206. For NCI-H2087, the relative viability was 0.247. Cell Line HCC-44 has a relative viability of 0.162. NCI-H727 gave a relative viability of 0.404. Cell Line LK-2 has a relative viability of 0.351. Cell Line NCI-H2126 has a relative viability of 0.273. NCI-H1793 showed a relative viability of 0.429. In the case of H3255, the relative viability is reported as 0.311. COR-L23 gave a relative viability of 0.131. COR-L 105 gave a relative viability of 0.286. For LC-2-ad, the relative viability was 0.304. LU99A gave a relative viability of 0.669. ChaGo-K-1 showed a relative viability of 0.223. With NCI-H358 the relative viability was 0.0721.
